From patent US10682320B2, “Method for inhibiting osteoclast development” (West Virginia University, priority 2012, dated 2020)

Columns and labels:
[1] = tested on: store-operated Ca2+ entry (SOCe); assay: Store-operated Ca2+ entry (SOCe) in human osteoclasts; assay type: cell-based; conditions: n=3; data not shown
Procedure: Human monocytes were isolated from normal buffy coat cells (60-80 ml) obtained with approval of institutional review boards by separation from donor blood, the white-cell depleted blood retained for clinical use. Human monocyte culture and differentiation were as reported (see, Yaroslayskly B B, Zhang Y, Kalla S E, Garcia P V, Sharrow A C, Li Y, Zaidi M, Wu C, Blair H C, “NO-dependent osteoclast motility: Reliance on cGMP-dependent protein kinase I and VASP”, J Cell Sci I, Vol. 18, pages 5479-5487, 2005). […]
Ratiometric imaging of intracellular Ca^2+ using fura-2 was as described (see, Zhou et al., 2009 above). […] Ca^2+ measurements were made using a Leica DMI 6000B fluorescence microscope controlled by Slidebook Software. Fluorescence emission at 505 nm was monitored while alternating between 340 and 380 nm excitation wavelengths at a frequency of 0.67 Hz; intracellular Ca^2+ measurements are shown as 340/380 nm emission ratios obtained from groups (35-45) of single cells. […]
The haloanilide DCPA blocks store-operated Ca^2+ channel function in Jurkat cells with no effect on ER Ca^2+ content. […] To address this, the present inventor examined HEK293 cells stably expressing Orai I and transiently transfected with YFP-STIMI and measured the effect of DCPA on CRAC current or Icrac. […]

[2] = cited from earlier work
[3] = target: T1, STIM I/Orai I interaction (Homo sapiens, UniProt Q13586); assay: 2-APB-induced STIM I ct translocation to plasma membrane; assay type: cell-based; conditions: DCPA 100 μM, 2-APB 50 μM
T1 construct: the cytosolic fragment of STIM I (STIM 1 ct); expressed in transfected cells
T1 sequence (Q13586 235-685 limits assumed): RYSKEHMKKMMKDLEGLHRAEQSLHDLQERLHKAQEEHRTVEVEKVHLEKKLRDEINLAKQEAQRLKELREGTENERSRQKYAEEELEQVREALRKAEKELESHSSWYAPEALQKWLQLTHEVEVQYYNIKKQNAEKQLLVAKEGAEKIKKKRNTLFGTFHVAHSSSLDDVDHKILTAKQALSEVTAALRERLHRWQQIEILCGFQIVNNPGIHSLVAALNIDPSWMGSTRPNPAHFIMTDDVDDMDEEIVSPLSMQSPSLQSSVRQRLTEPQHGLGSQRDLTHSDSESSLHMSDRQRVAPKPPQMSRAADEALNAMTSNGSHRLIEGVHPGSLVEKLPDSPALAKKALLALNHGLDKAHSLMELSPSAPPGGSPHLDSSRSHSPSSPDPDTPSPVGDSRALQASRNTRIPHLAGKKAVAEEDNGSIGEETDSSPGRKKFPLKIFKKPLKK
Procedure: HEK293 cells, maintained in DMEM with 10% FBS, were transfected with YFP-STIM I using Lipofectamine 2000 (Invitrogen, Carlsbad, Calif.) for 5 h (37° C.; 5% CO2) followed by a 24-h recovery. Cells were placed in 140 mM NaCl, 5 mM KCl, 1 mM MgCl2, 10 mM glucose, 15 mM HEPES, 0.1% BSA, 2 mM CaCl2 and analyzed by confocal microscopy for STIM I puncta formation using a Nikon phase-fluorescence microscope with CCD detectors (Diagnostic instruments, Sterling Heights, Mich.). Phase or transmitted light microscopy used 10-40× objectives and red, green, and blue filters to assemble color images. Fluorescence images used 1.4 NA 40× oil objectives. Red fluorescence used excitation at 530-560 nm, a 575 nm dichroic minor, and 580-650 nm emission filter. Transfection data were analyzed using Nikon NIS Elements Imaging Software. The effect of DCPA on STIM I/Orai I association was determined in wild-type HEK293 cells transfected with STIM I-YFP as described in Wang Y, Deng X, Zhou Y, Hendron E, Mancarelia S, Ritchie M F, Tang X D, Baba Y, Kurosaki T, Mori Y, Soboloff J, Gill DL, “STIM protein coupling in the activation of Orai channels”, Proc Natl Acad Sci USA, Vol. 106, pages 7391-7396, 2009. Experiments were performed on a Leica DMI 6000B fluorescence microscope controlled by Slidebook Software (Intelligent Imaging Innovations, Denver, Colo.).

CRAC channel = CRAC channel (Homo sapiens, UniProt Q13586); assay: CRAC channel activity by Fura-2 fluorescence in Jurkat cells after thapsigargin; assay type: cell-based; design: endogenous in cells; host or cells: Jurkat cells
Chain of CRAC channel (Q13586 23-685): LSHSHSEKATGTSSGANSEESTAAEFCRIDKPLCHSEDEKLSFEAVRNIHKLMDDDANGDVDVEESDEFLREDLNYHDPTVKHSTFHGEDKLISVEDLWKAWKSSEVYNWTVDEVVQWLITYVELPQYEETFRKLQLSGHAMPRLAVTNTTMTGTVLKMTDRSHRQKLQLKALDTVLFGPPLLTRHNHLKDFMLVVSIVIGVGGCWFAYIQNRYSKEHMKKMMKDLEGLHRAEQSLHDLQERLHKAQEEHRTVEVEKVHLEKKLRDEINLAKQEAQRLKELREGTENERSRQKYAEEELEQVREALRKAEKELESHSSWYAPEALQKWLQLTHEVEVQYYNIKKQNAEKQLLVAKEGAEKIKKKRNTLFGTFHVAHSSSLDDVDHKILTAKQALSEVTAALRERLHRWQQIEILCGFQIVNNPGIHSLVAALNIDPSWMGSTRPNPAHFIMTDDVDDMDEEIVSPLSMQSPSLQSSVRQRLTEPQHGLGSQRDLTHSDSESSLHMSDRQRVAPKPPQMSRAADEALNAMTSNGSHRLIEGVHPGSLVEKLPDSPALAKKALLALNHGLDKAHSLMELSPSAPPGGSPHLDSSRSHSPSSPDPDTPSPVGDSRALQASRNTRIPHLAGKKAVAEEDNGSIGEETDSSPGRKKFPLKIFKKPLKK
Procedure: Ratiometric imaging of intracellular Ca^2+ using fura-2 was as described (see, Zhou et al., 2009 above). Briefly, cells on coverslips, in cation safe solution (107 mM NaCl, 7.2 mM KCl, 1.2 mM MgCl2, 11.5 mM glucose, 20 mM HEPES-NaOH, pH 7.2) were loaded with fura-2 acetoxymethyl ester (2 μM) for 30 min at 24° C. Cells were washed and fluorescent probe was allowed to de-esterify for 30 min. From signal remaining after saponin permeabilization, ˜85% of the dye was confined to the cytoplasm (see, Ma H-T, Patterson R L. van Rossum D B. Birnbaumer L, Mikoshiba K, Gill D L, “Requirement of the inositol trisphosphate receptor for activation of store-operated Ca^2+ channels”, Science, Vol. 287, pages 1647-1651, 2000). Ca^2+ measurements were made using a Leica DMI 6000B fluorescence microscope controlled by Slidebook Software. Fluorescence emission at 505 nm was monitored while alternating between 340 and 380 nm excitation wavelengths at a frequency of 0.67 Hz; intracellular Ca^2+ measurements are shown as 340/380 nm emission ratios obtained from groups (35-45) of single cells. Measurements shown are representative a minimum of three independent experiments.
N-(3,4-dibromophenyl)propanamide]. Jurkat cells, a T cell line that is very sensitive to DCPA, was cultured with the indicated compounds, DCPA, DBPA, and ethanol (EtOH). CRAC channel activity was monitored using Fura-2 fluorescence using standard known techniques. Cells were incubated in each composition at 100 uM for 10 minutes prior to addition of the SERCA inhibitor thapsigargin (Tg) to induce SOCe. Decreased CRAC channel activity is clearly evident with DCPA and DBPA.
Jurkat cells, a T cell line that is very sensitive to DCPA, was cultured with the indicated compositions of the present invention, namely, DNI, NM Propanil, and DNMNI. CRAC channel activity was monitored using Fura-2 fluorescence using standard known techniques. Cells were incubated in each composition at 100 uM for 10 minutes prior to addition of the SERCA inhibitor thapsigargin (Tg) to induce SOCe. Decreased CRAC channel activity is clearly evident with each of the compositions of the present invention. […] Each of the compositions of this invention achieve the results achieved with the known DCPA but without the burden of toxicity of DCPA that would accompany further metabolism of DCPA.

[4] = tested on: human monocytes differentiating into osteoclasts; assay: Human osteoclast differentiation in vitro (multinucleation, TRAP); assay type: cell-based; conditions: 8 days after RANKL
Procedure: Human monocytes were isolated from normal buffy coat cells (60-80 ml) obtained with approval of institutional review boards by separation from donor blood, the white-cell depleted blood retained for clinical use. Human monocyte culture and differentiation were as reported (see, Yaroslayskly B B, Zhang Y, Kalla S E, Garcia P V, Sharrow A C, Li Y, Zaidi M, Wu C, Blair H C, “NO-dependent osteoclast motility: Reliance on cGMP-dependent protein kinase I and VASP”, J Cell Sci I, Vol. 18, pages 5479-5487, 2005). Briefly, human monocytes cells were isolated from buffy coat on ficoll lymphocyte separation media and cultured at ˜6×10^5 cells per cm^2 in monocyte maintenance medium, Dulbecco's modified essential medium (DMEM) with 20 ng/ml of human m-CSF and 10% FBS, for 24 hours (h). After 24 h in culture, the medium was changed to osteoclast differentiation medium containing in addition of human 50 ng/ml of RANKL, with the additional inhibitors or activators as specified in results. Human osteoclast cultures were generally maintained for a minimum of 7 days before analysis, or longer times as specified in results.
The effect of DCPA on human osteoclast differentiation 8 days after addition of RANKL was evaluated.

SMILES: CCC(=O)Nc1ccc(Cl)c(Cl)c1 [DCPA, N-(3,4-dichlorophenyl)propanamide]
- reduction of SOCe in osteoclasts [1]: 27.5%
- doses mice can tolerate [2]: > 100 mg/kg
- doses producing frank immunotoxicity ([2]; mice): > 150 mg/kg
- ability of 2-APB to induce STIM I ct translocation to the plasma membrane [3]: dramatically attenuated
- effect on ER Ca2+ content (CRAC channel): no effect
- store-operated Ca2+ channel function (CRAC channel): blocks
- CRAC channel activity (CRAC channel; 100 uM, 10 minutes before thapsigargin): Decreased
- number of multinucleated TRAP+ cells ([4]; 1.0 μM): minimal effect
- number of multinucleated cells ([4]; 10 and 100 μM): marked progressive reduction
- TRAP activity ([4]; up to highest concentration (100 μM)): no differences
